From patent publication US20250041387A1, “POLYPEPTIDE SEQUENCE OF KDM6B AND APPLICATION OF KDM6B IN REGULATING AND CONTROLLING FUNCTION OF MESENCHYMAL STEM CELL” (BEIJING STOMATOLOGICAL HOSPITAL, CAPITAL MEDICAL UNIVERSITY, priority 2021, published 2025)

Assays:
WDR5 synthetic protein = WDR5 synthetic protein (Homo sapiens, UniProt P61964); assay: Polypeptide microarray of KDM6B incubated with biotin-labeled WDR5; assay type: binding; settings: FIG. 3A, B; positive = optical density more than 30%
From the text: • (1) Synthesis of polypeptide chip: A polypeptide chip was designed by overlapping and synthesized according to the sequence of KDM6B protein, with a total of two arrays. • (2) Synthesis of polypeptide microarray: A matrix membrane was activated, and placed on a fully automated polypeptide chip synthesizer. A Fmoc-amino acid solution was automatically transferred to a specific position on the activated membrane according to the set procedure, to react with the membrane. The membrane was immersed sequentially into the blocking solution I and II to block side chains, and washed with dimethyl formamide (DMF). The membrane was placed in a deprotection solution to remove the Fmoc protective group at the amino-terminal, then washed with DMF, and dried with ethanol. The above steps were repeated until all polypeptide microarrays were completely synthesized. After the synthesis was completed, the protective groups of the side chains were removed with specific organic reagents. […] The control group was incubated with the blocking solution. • (6) Streptavidin-HRP incubation: The reaction reagent Streptavidin-HRP (High Sensitivity Streptavidin-HRP (prod #21133)) was diluted with the blocking solution in an ratio of 1:10000, and then the polypeptide microarray chip was incubated with 5 ml of the diluted Streptavidin-HRP under shaking at room temperature for 2 hours, and washed. • (7) Color development: ECL luminescence reagent was added, and digital imaging was performed on a Chempchemi digital imager. • (8) Scan of polypeptide microarray chip and data analysis of color spot: The colored polypeptide microarray chip was imaged at 425 nm using the Chempchemi Imaging System with 200 s exposure. The optical density of colored spots was analyzed using TotalLab image analysis software, and the optical density of each colored spot was calculated using the “Spot Edge Average” algorithm in the software, with the optical density of the surrounding background of each colored spot as a reference. […]

[1] = molecular target: KDM6B/WDR5 protein complex (Homo sapiens, UniProt P61964); assay: Co-IP of KDM6B/WDR5 complex in bone marrow mesenchymal stem cells; assay type: cell-based; design: endogenous in cells; host or cells: bone marrow mesenchymal stem cells; settings: FIG. 3C
Method: Protein was extracted from cells of knockout group and overexpression group using IP lysate. The knockout group cells SCAPs-Scramsh and SCAPs-KDM6Bsh, SCAPs-Scramsh and SCAPs-WDR5sh, BMSCs-Scramsh and BMSCs-WDR5sh were added with KDM6B antibody, WDR5 antibody, and IgG antibody, respectively, and then rotated on a shaker at 4° C. overnight. On the next day, the cells were added with Protein A/G beads and rotated on a rotary shaker at 4° C. for 2 hours. A complex of protein-antibody-agarose bead was formed, and the formation of a protein complex of KDM6B and WDR5WB was detected by WB. The overexpression group cells SCAPs-Vector, SCAPs-HA-KDM6B, SCAPs-HA-KDM6B-mut102, and SCAPs-HA-KDM6B-mut114 were added with ProteinA/G beads with HA antibody, and cells SCAPs Vector and SCAPs-Myc-WDR5 were added with ProteinA/G beads with Myc antibody. All cells were incubated overnight to form a complex of protein-antibody-agarose bead. The formation of a protein complex of KDM6B and WDR5 was detected by WB method. • (2) Grouping: Input group (loading amount of 25 μg); antibody group (loading amount of 800 μg, 2 μg of antibody); IgG group (loading amount of 800 μg, 2 μg of antibody). Samples were diluted with lysate. • (3) Preparation of protein A/G beads
The protein A/G beads were washed 4 times with PBS, and centrifuged at 2000 g for 2 minutes. The supernatant was carefully collected, and added with PBS to achieve a content of protein A/G beads of 50%. 30 μL of protein A/G beads was added to each tube, and rotated at 4 degrees overnight. • (4) The samples were centrifuged at 5000 rpm for 30 s at 4° C., and washed 4-5 times with PBS by inverted up and down. Then the samples were centrifuged, and the supernatant was discarded. The samples were added with 30 μL of 2× loading buffer, and placed at 100° C. for 5 minutes. • (5) The supernatant was subjected to electrophoresis.

Substance: FITC-(Acp)-IVPMIHVSWNVARTVYGRKKRRQRRR [peptide 152]
- binding degree to WDR5 on polypeptide microarray (optical density of spots) (WDR5 synthetic protein): higher binding degree
- opening/blocking of the binding of KDM6B/WDR5 protein complex (Co-IP) [1]: could not effectively block the binding
